This is an account of results in publication PMC10936414 (mBio, 2024).

Like-named read-outs stand apart in the source and are kept apart here. Residues, ends and D or L forms follow the SMILES beside them. *: point of attachment. Cbz = O=C(OCc1ccccc1)*

Data set [1] has as its system VSV-SARS-CoV-2. The data set is described as follows: organism not typed. It counts as cell-based.
For data set [2], the system named is VSV. The data set is described as follows: microbe, parasite or virus in culture. It is filed as cell-based.
The subject of data set [3] is MA104 cells. The settings on record: treated 25 h, WST-8. (In general: Formazan colour is commonly taken as a measure of viable cells.)
The test system of data set [4] is VSV. The note with it: ref [12]; cited from earlier work.
Data set [5] deals with VSV-SARS-CoV-2. It counts as cell-based. The settings on record: MA104, MOI of 3, 24 hpi.
The subject of data set [6] is SARS-CoV. The note with it: ref [6]; cited from earlier work.
The test system of data set [7] is SARS-CoV-2-mNeonGreen. As to the kind of experiment: SARS-CoV-2-mNeonGreen infection of Vero E6 cells. It counts as cell-based.
For data set [8], the system named is VSV-SARS-CoV-2. The data set is described as follows: organism not typed. It counts as cell-based. The source holds these as a separate data set.
Data set [9] relates to SARS-CoV-2. The note with it: ref [4], [7]; cited from earlier work.
Data set [10] is described as follows: in vitro. The settings on record: African green monkey.
The mark [11] stands for this setting: MA104, read-out: EC50 against VSV-SARS-CoV-2, MA104 cells, pre-treated 1 h, 24 h infection, MOI = 1, GFP signal.
The mark [12] stands for this setting: Vesicular stomatitis virus, MA104, read-out: EC50 against VSV.
Setting [13] is: MA104, read-out: EC50 against VSV-SARS-CoV-2 (Fig. S1), MA104 cells, treated 1 h prior, MOI of 0.5, 24 hpi.

In general, EC50 refers to the concentration at which the effect is half-maximal. Regarding `C[C@H]1CCC/C=C/[C@@H]2C[C@H](O)C[C@H]2[C@H](O)/C=C/C(=O)O1` [Brefeldin A, brefeldin A], the EC50 in data set [1] (read-out: EC50 against VSV-SARS-CoV-2, MA104 cells, pre-treated 1 h, 24 h infection, MOI = 1, GFP signal) is under 2 µM.

Turning to `O=C(O)/C=C/c1ccc(O)c(O)c1` [Caffeic Acid, caffeic acid], the EC50 in data set [1] (setting [11]) was found to be 4.66 µM; in data set [2] (setting [12]) it was 6.7 µM.

On to `C/C=C/[C@H]1O[C@@](O)([C@@H](C)[C@H](O)[C@H](C)[C@H]2OC(=O)/C(OC)=C/C(C)=C/[C@@H](C)[C@@H](O)[C@@H](CC)[C@@H](O)[C@H](C)C/C(C)=C/C=C/[C@@H]2OC)C[C@@H](O[C@H]2C[C@@H](O)[C@H](OC(N)=O)[C@@H](C)O2)[C@@H]1C` [Concanamycin A, concanamycin A], for which the EC50 was under 0.01 µM in data set [1] (setting [11]) and 5.55 µM in data set [2] (setting [12]).

In the case of `CCOC(=O)[C@H]1O[C@@H]1C(=O)N[C@@H](CC(C)C)C(=O)NCCC(C)C` [E-64d], the CC50 in data set [3] was over 300 µM. Also, the “sensitivity of VSV to treatment (in words)” value in data set [4] is on record as “not be sensitive to E-64d treatment”.

For `CCCCCCCCc1ccc(CCC(N)(CO)CO)cc1` [FTY720], the EC50 in data set [1] (setting [11]) was found to be 5.17 µM; in data set [2] (setting [12]), 16.5 µM.

For the molecule `CC(C)Cn1c(=O)n(C)c(=O)c2[nH]cnc21` [IBMX, 3-isobutyl-1-methylxanthine], the EC50 in data set [1] (setting [11]) and in data set [2] (setting [12]) was under 2 µM each time.

For the molecule `Clc1ccc(N/N=C(\c2ccccc2)c2ccccn2)nc1` [JIB-04], the percentage of inhibition in data set [5] (JIB-04 0.3 µM, NTZ 0 µM) came out at 21%; in data set [5] (JIB-04 1 µM, NTZ 0 µM) it was 50%; in data set [5] (JIB-04 3 µM, NTZ 0 µM), 73%; in data set [5] (JIB-04 10 µM, NTZ 0 µM), 90%.

With `CC(=O)N1CCN(c2ccc(OCC3COC(Cn4ccnc4)(c4ccc(Cl)cc4Cl)O3)cc2)CC1` (stereo not shown) [Ketoconazole, ketoconazole], the EC50 is 30.1 µM in [1] (setting [11]) and over 100 µM in [2] (setting [12]).

As for `CC(C)C[C@@H](C=O)NC(=O)[C@H](CC(C)C)NC(=O)[C@H](CC(C)C)NC(=O)OCc1ccccc1` [MG132] (Cbz-Leu-Leu-Leu-aldehyde), the EC50 in data set [1] (setting [11]) was 0.64 µM. In addition, the “selectivity in antiviral activities, VSV EC50 compared to VSV-SARS-CoV-2 EC50” value (“selectivity in antiviral activities” for short) in data set [1] (MA104 cells) worked out at 100 fold. In addition, the “SARS-CoV replication (in words)” value in data set [6] is recorded as “impair SARS-CoV replication”.

Turning to `CC(=O)Oc1ccccc1C(=O)Nc1ncc([N+](=O)[O-])s1` [Nitazoxanide, nitazoxanide], the EC50 was found to be 5.82 µM in [1] (setting [13]); 10.5 µM in data set [1] (setting [11]); 16.3 µM in data set [2] (setting [12]); 4.9 µM in data set [7] (Severe acute respiratory syndrome coronavirus 2, Vero C1008, read-out: EC50 against SARS-CoV-2-mNeonGreen). Moreover, the “SI (selectivity index)” value in [1] (VSV-SARS-CoV-2, MA104 cells) amounted to 237; in data set [7] (SARS-CoV-2-mNeonGreen, Vero E6 cells) it was 167. Also, the percentage of inhibition in [5] (JIB-04 0 µM, NTZ 1 µM) was 16%; in [5] (JIB-04 0 µM, NTZ 3 µM), 24%; in data set [5] (JIB-04 0 µM, NTZ 10 µM) it was 42%; in data set [5] (JIB-04 0 µM, NTZ 30 µM) it was 92%.

For `COc1ccc2cc1Oc1ccc(cc1)C[C@H]1c3cc(c(OC)cc3CCN1C)Oc1c(OC)c(OC)cc3c1[C@H](C2)N(C)CC3` [Tetrandrine, tetrandrine], the figures for the EC50 in data set [1] (setting [11]) and in data set [2] (setting [12]) were 1.23 µM and 23.2 µM, respectively.

As for `C/C=C(/C)C(=O)O[C@H]1C(C)=C2[C@H]([C@@H]1OC(=O)CCCCCCC)[C@@](C)(OC(C)=O)C[C@H](OC(=O)CCC)[C@@]1(O)[C@H]2OC(=O)[C@@]1(C)O` [Thapsigargin, thapsigargin], the EC50 in data set [1] (setting [11]) turned out to be 0.22 µM; in [2] (setting [12]), 4.08 µM.

As for `CC(C)[C@H](NC(=O)OCc1ccccc1)C(=O)N[C@H](C=O)Cc1ccccc1` [calpain inhibitor III] (Cbz-Val-Phe-aldehyde), in data set [1] (MA104 cells), the “selectivity in antiviral activities” value was “more than 30 fold”. In addition, the EC50 in [1] (MA104 cells, pre-treated 1 h, 24 h infection, MOI = 1, GFP signal, read-out: EC50 against VSV-SARS-CoV-2) was 0.231 µM; in data set [2] (read-out: EC50 against VSV), 10.7 µM; in data set [8] (Vero E6 cells, pre-treated 1 h, 24 h infection, read-out: EC50 against VSV-SARS-CoV-2 in Vero E6 cells), under 0.5 µM. The molecule further came in with a CC50 in data set [3] of over 300 µM.

As to `CSCC[C@@H](C=O)NC(=O)[C@H](CC(C)C)NC(=O)[C@H](CC(C)C)NC(C)=O` [calpain inhibitor II] (Ac-Leu-Leu-Met-aldehyde), in [9], the “suppression of SARS-CoV-2 replication (in words)” value is reported as “suppressed SARS-CoV-2 replication”.

For the molecule `CCCC[C@@H](C=O)NC(=O)[C@H](CC(C)C)NC(=O)OCc1ccccc1` [calpeptin], the EC50 in data set [1] (setting [11]) is 0.208 µM; in [2] (setting [12]), 7.43 µM; in [8] (Vero C1008, read-out: EC50 against VSV-SARS-CoV-2 in Vero E6 cells, Vero E6 cells, pre-treated 1 h, 24 h infection), under 0.5 µM. The “selectivity in antiviral activities” value in data set [1] (MA104 cells) is reported as “more than 30 fold”. The “suppression of SARS-CoV-2 replication (in words)” value in [9] is listed as “suppressed SARS-CoV-2 replication”. In addition, the CC50 in data set [10] was 300 µM.

On to `O=C(/C=C/c1ccc(O)c(O)c1)O[C@H](Cc1ccc(O)c(O)c1)C(=O)O` [rosmarinic acid], for which, in data set [1] (setting [13]), the EC50 is over 100 µM. The “inhibition of VSV-SARS-CoV-2 infection (in words)” value in data set [1] (MA104 cells) was “did not inhibit VSV-SARS-CoV-2 infection”. The same molecule gave a CC50 in [10] of over 300 µM.
